Values of other authors as cited in patent US20250303004A1, “RADIOPHARMACEUTICAL COMPOSITIONS FOR LOW TOXICITY ACTINIUM IN TARGETED RADIONUCLIDE THERAPY” (Curium US LLC, priority 2021, published 2025).
Entries after “also recorded” stand apart in the source; their conditions may differ. Like-named read-outs stand apart in the source and are kept apart here.

Key:
kidneys = details: in vivo; cited from earlier work
cerebral metastases = details: in vivo; cited from earlier work
patients with mCRPC = details: 26 patients, cited from earlier work; for Biochemical response PSA50 (PSA decline of >50%): all progressed after ^177Lu-PSMA
[1] = Feuerecker 2020, 4-8 MBq per cycle

Compound: O=C(O)CC[C@H](NC(=O)N[C@@H](CCCCNC(=O)[C@H](Cc1ccc2ccccc2c1)NC(=O)[C@H]1CC[C@H](CNC(=O)CN2CCN(CC(=O)O)CCN(CC(=O)O)CCN(CC(=O)O)CC2)CC1)C(=O)O)C(=O)O [^225Ac-PSMA-617, metal not drawn]
- kidney function (kidneys): deteriorated
- route of excretion (kidneys): predominantly renal excretion
- blood-brain barrier crossing (cerebral metastases): crosses the blood-brain barrier
- effect on cerebral metastases (cerebral metastases): significant regression of cerebral metastases
- median overall survival (patients with mCRPC; 95% CI 4.5-12.1 months): 7.7 months
- complete response (patients with mCRPC): no complete response was seen
- patients refusing any further treatment due to severe xerostomia (patients with mCRPC): 23%
- patients with any PSA reduction (patients with mCRPC): 88%
- xerostomia (patients with mCRPC): Mild irreversible xerostomia was seen in all patients
- patients with treatment discontinued to prevent further deterioration of marrow toxicity (patients with mCRPC; pre-existing marrow toxicity): 8%
- Biochemical response PSA50 (PSA decline of >50%) (patients with mCRPC; [1]): 65%
- Biochemical response PSA50 (PSA decline of >50%) (patients with mCRPC; Feuerecker 2020, 4-8 MBq per cycle, listed as PSMA-617): 65%
- Major toxicity (patients with mCRPC; [1]): xerostomia; also recorded: Hb↓, WBC↓, plt↓
- OS (patients with mCRPC; [1]): 7.7 mo
- PFS (patients with mCRPC; [1]): 3.5 mo
